Target: α4β2 nAChRs (Rattus norvegicus, UniProt P09483+P12390)
Experiment: biochemical
Format: binding
Conditions: not given

Sequence of α4β2 nAChRs (P09483 31-630): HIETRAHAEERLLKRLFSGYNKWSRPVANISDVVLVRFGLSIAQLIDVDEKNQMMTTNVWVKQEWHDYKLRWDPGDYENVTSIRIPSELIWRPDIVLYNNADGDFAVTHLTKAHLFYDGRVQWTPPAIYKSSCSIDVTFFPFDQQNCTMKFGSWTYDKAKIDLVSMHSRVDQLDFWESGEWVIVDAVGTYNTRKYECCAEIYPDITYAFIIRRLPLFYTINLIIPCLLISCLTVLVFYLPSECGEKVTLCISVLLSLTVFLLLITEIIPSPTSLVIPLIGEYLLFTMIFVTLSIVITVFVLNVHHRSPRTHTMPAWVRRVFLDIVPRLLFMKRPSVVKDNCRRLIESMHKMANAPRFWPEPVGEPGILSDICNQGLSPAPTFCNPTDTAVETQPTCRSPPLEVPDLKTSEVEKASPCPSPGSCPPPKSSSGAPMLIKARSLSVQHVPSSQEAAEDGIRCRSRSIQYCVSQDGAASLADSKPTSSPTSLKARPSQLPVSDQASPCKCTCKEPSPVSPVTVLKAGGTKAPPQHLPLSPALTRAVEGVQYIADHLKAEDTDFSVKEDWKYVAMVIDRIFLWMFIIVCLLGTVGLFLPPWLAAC
Sequence of α4β2 nAChRs (P12390 25-500): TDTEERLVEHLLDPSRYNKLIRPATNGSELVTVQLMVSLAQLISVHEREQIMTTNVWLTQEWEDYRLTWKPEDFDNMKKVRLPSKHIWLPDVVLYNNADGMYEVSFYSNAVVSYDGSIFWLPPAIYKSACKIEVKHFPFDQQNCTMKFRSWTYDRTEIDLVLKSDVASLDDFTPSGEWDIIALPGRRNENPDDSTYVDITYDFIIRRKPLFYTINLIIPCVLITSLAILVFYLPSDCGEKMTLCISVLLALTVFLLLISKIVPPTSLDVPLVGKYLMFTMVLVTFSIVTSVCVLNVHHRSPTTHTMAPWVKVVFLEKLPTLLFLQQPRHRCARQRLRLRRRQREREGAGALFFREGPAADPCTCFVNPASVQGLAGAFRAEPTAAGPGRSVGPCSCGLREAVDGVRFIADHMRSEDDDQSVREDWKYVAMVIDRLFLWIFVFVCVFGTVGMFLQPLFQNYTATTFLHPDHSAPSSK

For Ic1ncc(C2CC3CCC2N3)cc1-c1ccccc1 (centres unmarked) [RTI-7527-3], which Ki is on record?
Its Ki is 0.019 ± 0.002 nM.

Which Ki does the source give for Clc1ncc(C2CC3CCC2N3)cc1I (centres unmarked) [RTI-7527-4] here?
Its Ki is 0.012 ± 0.0003 nM.

With Clc1cc(C2CC3CCC2N3)cnc1Cl (centres unmarked) [RTI-7527-5] as the compound, how does the Ki read?
Its Ki is 0.015 ± 0.001 nM.

With Brc1cc(C2CC3CCC2N3)cnc1I (centres unmarked) [RTI-7527-50] as the compound, how does the Ki read?
The Ki was 0.027 ± 0.002 nM.

Which Ki does the source give for Nc1ncc(C2CC3CCC2N3)cc1-c1ccccc1 (centres unmarked) [RTI-7527-51] here?
Its Ki is 0.33 ± 0.05 nM.

For Nc1ncc(C2CC3CCC2N3)cc1I (centres unmarked) [RTI-7527-57], which Ki is on record?
Its Ki is 1.47 ± 0.12 nM.

Which Ki does the source give for CON=C1C2CCC1C(c1ccc(Cl)nc1)C2 (centres unmarked) [compound 2] here?
The Ki was > 1000 nM.

Which Ki does the source give for NC1C2CCC1C(c1ccc(Cl)nc1)C2 (centres unmarked) [compound 3] here?
Its Ki is 8.2 ± 0.08 nM.

For Cc1nc(Cl)ccc1C1CC2CCC1N2 (centres unmarked) [compound 5], which Ki is on record?
Its Ki is 256 ± 74 nM.

For CN1C2CCC1C(c1ccc(Cl)nc1)C2 (centres unmarked) [compound 11], which Ki is on record?
Its Ki is 22.8 ± 0.001 nM.

Which results are given for Oc1ncc(C2CC3CCC2N3)cc1-c1ccccc1 (centres unmarked) [compound 29]?
Hill Slope: 1.04 ± 0.07; Ki: 51.9 ± 2 nM

For Clc1cncc(C2CC3CCC2N3)c1 (centres unmarked) [compound 35], which Ki is on record?
Its Ki is 0.12 ± 0.006 nM.

For Fc1ncc(C2CC3CCC2N3)cc1Cl (centres unmarked) [compound 37], which Ki is on record?
Its Ki is 0.02 ± 0.0003 nM.

For Fc1cc(C2CC3CCC2N3)cnc1F (centres unmarked) [compound 38], which Ki is on record?
The Ki was 0.055 ± 0.001 nM.

What does the source list for Fc1ncc(C2CC3CCC2N3)cc1I (centres unmarked) [compound 39]?
Hill Slope: 1.0 ± 0.05; Ki: 0.076 ± 0.004 nM

For Nc1ncc(C2CC3CCC2N3)cc1-c1cccc([N+](=O)[O-])c1 (centres unmarked) [compound 42], which “Hill Slope” value is on record?
The value was 1.1 ± 0.09.

What about the Ki of the same compound?
The Ki was 0.047 ± 0.002 nM.

For COc1cccc(-c2cc(C3CC4CCC3N4)cnc2Cl)c1 (centres unmarked) [compound 45], which Ki is on record?
Its Ki is 0.019 ± 0.005 nM.

Which Ki does the source give for Fc1ncc(C2CC3CCC2N3)cc1-c1ccccc1 (centres unmarked) [compound 47] here?
The Ki was 0.14 ± 0.07 nM.

For OC1C2CCC1C(c1ccc(Cl)nc1)C2 (centres unmarked) [compound 50], which Ki is on record?
The Ki was > 1000 nM.

For Nc1ccc(C2CC3CCC2C3)cn1 (centres unmarked) [compound 54], which “Hill Slope” value is on record?
Its value is 1.1.

And the Ki?
The Ki was 2200 nM.

Same assay, conditions: Table 1; [3H]epibatidine binding, rat cerebral cortex

For Clc1ncc(C2CC3CCC2N3)cc1-c1ccccc1 (centres unmarked) [RTI-7527-2], which “Hill Slope” value is on record?
Its value is 0.81 ± 0.02.

For Ic1ncc(C2CC3CCC2N3)cc1-c1ccccc1 (centres unmarked) [RTI-7527-3], which “Hill Slope” value is on record?
The value was 0.84 ± 0.02.

For Clc1ncc(C2CC3CCC2N3)cc1I (centres unmarked) [RTI-7527-4], which “Hill Slope” value is on record?
Its value is 0.83 ± 0.03.

For Clc1cc(C2CC3CCC2N3)cnc1Cl (centres unmarked) [RTI-7527-5], which “Hill Slope” value is on record?
Its value is 0.87 ± 0.04.

Which “Hill Slope” value does the source give for Brc1cc(C2CC3CCC2N3)cnc1I (centres unmarked) [RTI-7527-50] here?
The value was 0.96 ± 0.05.

For Nc1ncc(C2CC3CCC2N3)cc1-c1ccccc1 (centres unmarked) [RTI-7527-51], which “Hill Slope” value is on record?
Its value is 0.93 ± 0.03.

With Clc1ncc(C2CC3CCC2N3)cc1Br (centres unmarked) [RTI-7527-53] as the compound, how does the “Hill Slope” value read?
The value was 0.95 ± 0.09.

Which “Hill Slope” value does the source give for NC1C2CCC1C(c1ccc(Cl)nc1)C2 (centres unmarked) [compound 3] here?
Its value is 1.2 ± 0.04.

For Cc1nc(Cl)ccc1C1CC2CCC1N2 (centres unmarked) [compound 5], which “Hill Slope” value is on record?
The value was 1.1 ± 0.03.

With Fc1ccc(C2CC3CCC2N3)cn1 (centres unmarked) [compound 13] as the compound, how does the “Hill Slope” value read?
The value was 0.9 ± 0.02.

With CN(C)c1ccc(C2CC3CCC2N3)cn1 (centres unmarked) [compound 19] as the compound, how does the “Hill Slope” value read?
Its value is 1.0 ± 0.01.

Which “Hill Slope” value does the source give for Clc1cncc(C2CC3CCC2N3)c1 (centres unmarked) [compound 35] here?
The value was 0.9 ± 0.03.

With Fc1cncc(C2CC3CCC2N3)c1 (centres unmarked) [compound 36] as the compound, how does the “Hill Slope” value read?
The value was 0.9 ± 0.01.

With Fc1ncc(C2CC3CCC2N3)cc1Cl (centres unmarked) [compound 37] as the compound, how does the “Hill Slope” value read?
The value was 0.8 ± 0.004.

Which “Hill Slope” value does the source give for Fc1cc(C2CC3CCC2N3)cnc1F (centres unmarked) [compound 38] here?
The value was 1.0 ± 0.01.

For Ic1cncc(C2CC3CCC2N3)c1 (centres unmarked) [compound 41], which “Hill Slope” value is on record?
The value was 0.9 ± 0.02.

Which “Hill Slope” value does the source give for COc1cccc(-c2cc(C3CC4CCC3N4)cnc2Cl)c1 (centres unmarked) [compound 45] here?
Its value is 0.8 ± 0.02.

With COc1cccc(-c2cncc(C3CC4CCC3N4)c2)c1 (centres unmarked) [compound 46] as the compound, how does the “Hill Slope” value read?
Its value is 0.9 ± 0.03.

With Fc1ncc(C2CC3CCC2N3)cc1-c1ccccc1 (centres unmarked) [compound 47] as the compound, how does the “Hill Slope” value read?
Its value is 1.1 ± 0.04.

Same assay, conditions: Table 1; [3H]epibatidine binding, rat cerebral cortex; listed as 24

For Nc1ncc(C2CC3CCC2N3)cc1I (centres unmarked) [RTI-7527-57], which “Hill Slope” value is on record?
Its value is 1.07 ± 0.14.

Same assay, conditions: Table 1; [3H]epibatidine binding, rat cerebral cortex; listed as 34

With Nc1ncc(C2CC3CCC2N3)cc1I (stereo not drawn) [RTI-7527-24, 2-exo-[5′-(3′-Iodo-2′-aminopyridinyl)]-7-azabicyclo[2.2.1]-heptane] as the compound, how does the “Hill Slope” value read?
The value was 1.08 ± 0.03.

Same assay, conditions: read-out: α4β2 [^3H]Epibatidine (Ki); Table 1; male rat cerebral cortex homogenate, 0.5-2 nM [3H]epibatidine, Ki from IC50 by Cheng-Prusoff

Which Ki does the source give for Clc1ncc(C2CC3CCC2N3)cc1-c1ccccc1 (centres unmarked) [RTI-7527-2] here?
The Ki was 0.021 ± 0.005 nM.

For Nc1ncc(C2CC3CCC2N3)cc1I (stereo not drawn) [RTI-7527-24, 2-exo-[5′-(3′-Iodo-2′-aminopyridinyl)]-7-azabicyclo[2.2.1]-heptane], which Ki is on record?
Its Ki is 35.5 ± 5.4 nM.

For Clc1ncc(C2CC3CCC2N3)cc1Br (centres unmarked) [RTI-7527-53], which Ki is on record?
The Ki was 0.013 ± 0.001 nM.

For Fc1ccc(C2CC3CCC2N3)cn1 (centres unmarked) [compound 13], which Ki is on record?
The Ki was 0.027 ± 0.001 nM.

For CN(C)c1ccc(C2CC3CCC2N3)cn1 (centres unmarked) [compound 19], which Ki is on record?
Its Ki is 26.4 ± 1.4 nM.

Which Ki does the source give for Fc1cncc(C2CC3CCC2N3)c1 (centres unmarked) [compound 36] here?
The Ki was 0.037 ± 0.001 nM.

Which Ki does the source give for Ic1cncc(C2CC3CCC2N3)c1 (centres unmarked) [compound 41] here?
Its Ki is 0.059 ± 0.001 nM.

Which Ki does the source give for COc1cccc(-c2cncc(C3CC4CCC3N4)c2)c1 (centres unmarked) [compound 46] here?
Its Ki is 0.43 ± 0.05 nM.

Same assay, conditions: second table (structures A, B, C); [3H]epibatidine binding, rat cerebral cortex

For CN1C2CCC1C(c1ccc(Cl)nc1)C2 (centres unmarked) [compound 11], which “Hill Slope” value is on record?
The value was 1.07 ± 0.05.

Tested on: not given
Experiment: not given
Conditions: not given

For Clc1cc(C2CC3CCC2N3)cnc1Cl (centres unmarked) [RTI-7527-5], which melting point is on record?
The melting point was 75 to 80 °C.

Which melting point does the source give for CN1C2CCC1C(c1ccc(Cl)nc1)C2 (centres unmarked) [compound 11] here?
The melting point was 100 to 102 °C.

Reference: patent US7615567B2, “Compounds and methods for promoting smoking cessation” (priority 2000, dated 2009)
